Laboratory results: article PMC5834214 (PLoS Pathogens, 2018)
Where two headings read alike, the source gives them in different places.

Experiments:
in vitro [1] = settings: grivet
rLCMV/eGFP [2] = assay: microbe, parasite or virus in culture; settings: Mammarenavirus choriomeningitidis, Vero C1008, 48 h, read-out: IC50 (anti-LCMV, eGFP expression)
rLASV/eGFP = assay: microbe, parasite or virus in culture; assay type: cell-based, Lassa virus; settings: Mammarenavirus lassaense, A549, 48 h, read-out: IC50 (LASV, eGFP expression)
rLCMV/eGFP [3] = assay: microbe, parasite or virus in culture; settings: Mammarenavirus choriomeningitidis, A549, 48 h
r3JUNV/eGFP = assay type: cell-based, Junín virus
in vitro [4] = settings: human
LCMV NP (Strep-NP) = LCMV NP (Strep-NP) (Lymphocytic choriomeningitis virus, UniProt P09992)
eGFP = eGFP (Aequorea victoria, UniProt P42212, F64L/H231L/S65T)
rVSV/eGFP = assay type: cell-based, vesicular stomatitis Indiana virus
rLCMV/eGFP [5] = assay type: cell-based, lymphocytic choriomeningitis virus
scrLCMV/ZsG-P2A-NP = assay type: cell-based, lymphocytic choriomeningitis virus
rLCMV/eGFP [6] = assay type: cell-based, lymphocytic choriomeningitis virus; remark: listed apart in the source
rLCMV/eGFP [7] = assay type: cell-based, lymphocytic choriomeningitis virus; remark: listed apart in the source
rLCMVΔGPC/eGFP = assay type: cell-based, lymphocytic choriomeningitis virus
rLCMV/eGFP [8] = assay type: cell-based, lymphocytic choriomeningitis virus; remark: listed apart in the source
LCMV Z-mediated budding = assay type: cell-based, lymphocytic choriomeningitis virus
LASV Z-mediated budding = assay type: cell-based, Lassa virus
[9] = read-out: IC50 (anti-LCMV, eGFP expression)

Chain of LCMV NP (Strep-NP) (P09992 whole entry): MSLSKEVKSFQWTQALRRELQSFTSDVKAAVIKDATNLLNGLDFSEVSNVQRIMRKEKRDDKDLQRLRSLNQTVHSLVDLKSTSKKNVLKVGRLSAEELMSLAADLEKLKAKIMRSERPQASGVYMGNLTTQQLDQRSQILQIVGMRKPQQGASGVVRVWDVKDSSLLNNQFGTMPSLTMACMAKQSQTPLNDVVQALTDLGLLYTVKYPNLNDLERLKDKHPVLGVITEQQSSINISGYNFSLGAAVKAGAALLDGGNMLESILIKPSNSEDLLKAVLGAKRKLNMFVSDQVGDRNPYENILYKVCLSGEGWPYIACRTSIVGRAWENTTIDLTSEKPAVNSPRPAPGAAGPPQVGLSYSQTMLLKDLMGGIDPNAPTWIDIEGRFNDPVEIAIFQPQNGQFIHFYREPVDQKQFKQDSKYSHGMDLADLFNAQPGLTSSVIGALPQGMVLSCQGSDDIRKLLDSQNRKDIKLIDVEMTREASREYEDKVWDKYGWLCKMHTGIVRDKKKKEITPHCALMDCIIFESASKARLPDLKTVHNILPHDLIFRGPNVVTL

Compound | CC50 (in vitro [1]) [nM] | IC50 (rLCMV/eGFP [2]) [nM] | IC50 (rLASV/eGFP) [nM] | IC50 (rLCMV/eGFP [3]; [9]) [nM] | JUNV multiplication (r3JUNV/eGFP) | CC50 (in vitro [4]) [nM] | Multiplication of VSV (rVSV/eGFP) | cell entry of LCMV (rLCMV/eGFP [6]) | number of eGFP+ cells (rLCMV/eGFP [6]) | eGFP expression in infected cells (rLCMV/eGFP [7]) | reporter eGFP expression (virus RNA synthesis) (rLCMVΔGPC/eGFP) | production of infectious LCMV progeny (rLCMV/eGFP [8]) | also measured
C[C@]12CC[C@H](O)C[C@H]1CC[C@@H]1[C@@H]2CC[C@]2(C)[C@@H](c3ccc(=O)oc3)CC[C@]12O [bufalin] | 73.8 | 12.5 | 1.66 | 1.85 | strongly suppressed JUNV multiplication | 16.4 |  |  |  |  |  |  | 
SPTAN1 |  |  |  |  |  |  |  |  |  |  |  |  | Spectral count NP Average (LCMV NP (Strep-NP)): 4; Spectral count NP Exp. 1 (LCMV NP (Strep-NP)): 4; Spectral count NP Exp. 2 (LCMV NP (Strep-NP)): 4; Spectral count eGFP Average (eGFP): 0; Spectral count eGFP Exp. 1 (eGFP): 0; Spectral count eGFP Exp. 2 (eGFP): 0
C[C@@H]1O[C@@H](O[C@H]2C[C@@H](O)[C@]3(CO)[C@H]4[C@H](O)C[C@]5(C)[C@@H](C6=CC(=O)OC6)CC[C@]5(O)[C@@H]4CC[C@]3(O)C2)[C@H](O)[C@H](O)[C@H]1O [ouabain] | 70 | 18.4 | 9.34 | 5.79 | strongly suppressed JUNV multiplication | 28.9 | not significantly affected | neither ouabain nor rocaglamide inhibited cell entry of LCMV | reduced at all time-of-addition points compared to vehicle | strong dose-dependent inhibition of eGFP expression | did not affect reporter eGFP expression | reduced | assembly de novo of extracellular infectious virus (virus titers in TCS) (rLCMV/eGFP [5]): did not inhibit assembly de novo of extracellular infectious virus; assembly de novo of extracellular infectious virus (GP-incorporation efficiency) (scrLCMV/ZsG-P2A-NP): did not inhibit assembly de novo of extracellular infectious virus; IC50 (rLCMV/eGFP [3]; read-out: IC50 as log10 (converted)): 5.79 nM; eGFP expression intensity in infected cells (rLCMV/eGFP [7]): did not affect eGFP expression intensity
COc1ccc([C@@]23Oc4cc(OC)cc(OC)c4[C@]2(O)[C@H](O)[C@H](C(=O)N(C)C)[C@H]3c2ccccc2)cc1 [rocaglamide] | 100 | 9.75 | 37 | 9.51 | strongly suppressed JUNV multiplication | > 1000 | not significantly affected | neither ouabain nor rocaglamide inhibited cell entry of LCMV | negligible number of eGFP^+ cells | dose-dependent rocaglamide inhibition of eGFP expression | reduced eGFP expression | reduced | LCMV Z budding efficiency (LCMV Z-mediated budding): caused a reduction; LASV Z budding efficiency (LASV Z-mediated budding): caused a reduction
